In patent publication US20260068882A1, “ARTHROPOD CONTROLLING COMPOSITION” (Firmenich SA, priority 2019, published 2026):

Tests used:
Aedes aegypti [1] = test: In vitro Warm Body assay, mosquitoes landing on treated warm body; format: in vivo; settings: for % of mosquitoes' repellency: normalised to landing with 100% ethanol
Method in brief: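 Adapted Warm Body assay with host-seeking, non-blood-fed, sugar-fed A. aegypti Rockefeller females aged 5–10 days (10–12 days in one set); cages held 30 (or 25) females at 150 lux. Landings were counted automatically. Doses in ethanol were 0.0016%, 0.04% and 1% in triplicate, or a single replicate across 0.0016–1%.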

Aedes aegypti [2] = test: In vivo arm in cage test on forearm of human volunteers; settings: for % of repellency MEAN: 20% in ethanol on forearm, three volunteers
Protocol: The Arm in the box method was adapted from the WHO Guidelines for efficacy testing of mosquito repellents for human skin (WHO/CDS/NTD/WHOPES/2009.4). The readiness of 100 hungry female mosquitoes A. aegypti to probe is assessed by inserting an untreated arm into the cage (40×40×40 cm) for 30 seconds (negative control) three times (once at the beginning, once at the fourth hour and once at the eighth hour), to determine probing activity.
Then, the product is applied onto the skin of the forearm of a human volunteer (1 ml per 600 cm^2) and after 5 minutes, this arm is inserted into the cage and exposed for 3 minutes. The assay take place in temperature (27±2° C.) and humidity (80±10% RH) regulated room on three different volunteers.

Aedes aegypti [3] = test: as above; settings: 20% in ethanol on forearm; 0.05 h post application; three volunteers
[4] = Aedes aegypti, read-out: decrease of landings

Cc1ccc2c(c1)CC(C)(CO)C2 (stereo not shown) [ingredient #2, (2,5-dimethyl-2,3-dihydro-1H-inden-2yl)methanol]
% of mosquitoes' repellency (Aedes aegypti [1]; 0.00032% concentration): 18% | % of mosquitoes' repellency (Aedes aegypti [1]; 0.00071% concentration): 46% | % of mosquitoes' repellency (Aedes aegypti [1]; 0.0016% concentration): 14% | number of mosquitoes landed on the Warm Body (Aedes aegypti [1]; 0.0016% in ethanol (Table 7, one replicate)): 68 | % of mosquitoes' repellency (Aedes aegypti [1]; 0.0036% concentration): 46% | % of mosquitoes' repellency (Aedes aegypti [1]; 0.0053% concentration): 0% | % of mosquitoes' repellency (Aedes aegypti [1]; 0.0080% concentration): 26% | number of mosquitoes landed on the Warm Body (Aedes aegypti [1]; 0.008% in ethanol (Table 7, one replicate)): 61 | % of mosquitoes' repellency (Aedes aegypti [1]; 0.018% concentration): 26% | % of mosquitoes' repellency (Aedes aegypti [1]; 0.040% concentration): 61% | number of mosquitoes landed on the Warm Body (Aedes aegypti [1]; 0.04% in ethanol (Table 7, one replicate)): 22 | % of mosquitoes' repellency (Aedes aegypti [1]; 0.089% concentration): 60% | % of mosquitoes' repellency (Aedes aegypti [1]; 0.20% concentration): 80% | number of mosquitoes landed on the Warm Body (Aedes aegypti [1]; 0.2% in ethanol (Table 7, one replicate)): 9 | number of mosquitoes landed on the Warm Body (Aedes aegypti [1]; 0.447% in ethanol (Table 7, one replicate)): 3 | % of mosquitoes' repellency (Aedes aegypti [1]; 0.45% concentration): 93% | % of mosquitoes' repellency (Aedes aegypti [1]; 1% concentration): 91% | number of mosquitoes landed on the Warm Body (Aedes aegypti [1]; 1% in ethanol (Table 7, one replicate)): 8 | pest or weed control at 0.0016 % (Aedes aegypti [1]; [4]): 4 to 29% | pest or weed control at 0.04 % (Aedes aegypti [1]; [4]): ~70% | repulsion (in words) (Aedes aegypti [1]; concentrations lower than 0.04%): only low repulsion | % of repellency MEAN (Aedes aegypti [2]; 1 h post application): 98.83% | % of repellency MEAN (Aedes aegypti [2]; 2 h post application): 97.79% | % of repellency MEAN (Aedes aegypti [2]; 3 h post application): 96.72% | % of repellency MEAN (Aedes aegypti [2]; 4 h post application): 94.71% | % of repellency MEAN (Aedes aegypti [2]; 5 h post application): 94.05% | % of repellency MEAN (Aedes aegypti [2]; 6 h post application): 91.99% | % of repellency MEAN (Aedes aegypti [2]; 7 h post application): 90.91% | % of repellency MEAN (Aedes aegypti [2]; 8 h post application): 84.67% | reduction of the number of mosquitoes landing on the volunteers' arm (Aedes aegypti [2]; 20% in ethanol, for up to 7 h): more than 90% | % of repellency MEAN (Aedes aegypti [3]): 99.1%
